In US20110059910A1, “Novel aromatic fluoroglycoside derivatives, pharmaceuticals comprising said compounds and the use thereof” (SANOFI-AVENTIS, priority 2008, published 2011):

target: T1, human sodium-dependent glucose transporter 2 (SGLT2, SLC5A2) (Homo sapiens, UniProt P31639); assay: Inhibition of the transport activity of human SGLT2 in vitro (α-MDG uptake in CHO-TRex-hSGLT2 cells); format: cell-based; details: 50 μM α-MDG, 120 min at 37° C.
T1 construct: Bases 21 to 2039 correspond to the complete coding region of human SGLT2; expressed in transfected cells
T1 sequence (P31639 1-672): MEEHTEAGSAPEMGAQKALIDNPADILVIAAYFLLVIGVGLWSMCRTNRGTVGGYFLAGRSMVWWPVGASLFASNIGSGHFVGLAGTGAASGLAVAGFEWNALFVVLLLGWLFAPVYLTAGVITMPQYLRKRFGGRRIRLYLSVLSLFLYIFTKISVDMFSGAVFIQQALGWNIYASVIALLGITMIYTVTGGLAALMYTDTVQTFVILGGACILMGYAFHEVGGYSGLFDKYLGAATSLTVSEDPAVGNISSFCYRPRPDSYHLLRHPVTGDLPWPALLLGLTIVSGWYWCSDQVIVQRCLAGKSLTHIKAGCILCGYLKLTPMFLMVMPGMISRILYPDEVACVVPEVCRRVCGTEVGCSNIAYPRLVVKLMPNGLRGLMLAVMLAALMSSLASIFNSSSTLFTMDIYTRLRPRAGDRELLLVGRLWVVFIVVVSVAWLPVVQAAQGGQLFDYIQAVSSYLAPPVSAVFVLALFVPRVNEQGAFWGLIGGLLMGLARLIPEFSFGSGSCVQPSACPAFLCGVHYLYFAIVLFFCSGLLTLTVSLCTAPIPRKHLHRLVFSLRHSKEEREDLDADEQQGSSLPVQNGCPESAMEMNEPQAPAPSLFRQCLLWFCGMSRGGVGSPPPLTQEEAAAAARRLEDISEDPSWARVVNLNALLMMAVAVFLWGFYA
Text: Inhibition of the Transport Activity of the Human Sodium-Dependent Glucose Transporter 2 (SGLT2, SLC5A2) In Vitro
1. Cloning of an Expression Vector for Human SGLT2
The cDNA for human SGLT2 was introduced into the pcDNA4/TO vector (Invitrogen) by means of standard methods of molecular biology as described in Sambrook et al. (Molecular Cloning, A Laboratory Manual, Second Edition). […] Bases 21 to 2039 correspond to the complete coding region of human SGLT2.
2. Production of a Recombinant Cell Line with Inducible Expression of Human SGLT2
The expression vector for human SGLT2 was introduced into CHO-TREx cells (Invitrogen) by means of FuGene6 lipofection (Roche). To select single cell clones, 600 μg/ml of Zeocin (Invitrogen) was added to the cell culture medium (nutrient mixture F-12 (Ham), (Invitrogen) supplemented with 10% fetal calf serum (FBS Gold, PAA), 10 μg/ml Blasticidin S(CN Biosciences), 100 units/ml penicillin, 100 units/ml streptomycin). The functionality of the single cell clones resulting from the selection was tested via their uptake activity for radiolabeled methyl-α-D-glucopyranoside. That cell clone with the highest uptake activity for methyl-α-D-glucopyranoside, referred to hereinafter as CHO-TRex-hSGLT2, was selected for the further experiments and cultured further in the presence of 600 μg/ml Zeocin.
3. Measurement of the Inhibiting Action of Test Substances on the Uptake of methyl-α-D-glucopyranoside (α-MDG)
CHO-TRex-hSGLT2 cells were seeded in cell culture medium in a concentration of 50 000 cells per well in Cytostar-T scintillating 96-well plates (Amersham Biosciences) and cultivated for 24 h. The expression of the recombinant human SGLT2 was induced by adding 1 μg/ml tetrazykline for a further 24 h. For α-MDG uptake experiments, the cells were washed with PBS and then starved at 37° C. in starvation medium (PBS supplemented with 10% fetal calf serum) for 1 hour. After a further washing step with transport assay buffer (140 mM sodium chloride, 2 mm potassium chloride, 1 mm magnesium chloride, 1 mm calcium chloride, 10 mm HEPES/Tris, pH 7.5), the cells were incubated at room temperature either in the absence or presence of test substances of different concentration for 15 min. The test substances were diluted correspondingly in transport assay buffer proceeding from a 10 mm stock solution in dimethyl sulfoxide (40 μl/well). The assay was subsequently started by adding 10 μl/well of a mixture of radiolabeled methyl-α-D-[U-^14C]glucopyranoside (Amersham) and unlabeled methyl-α-D-glucopyranoside (Acros). The final concentration of methyl-α-D-glucopyranoside in the assay was 50 μM. After an incubation time of 120 min at 37° C., the reaction was stopped by adding 50 μl/well of 10 mM methyl-α-D-glucopyranoside in transport assay buffer (4° C.), and the radioactivity taken up into the cells was determined in a MicroBeta Scintillation Microplate Reader (Wallac).
The half-maximum inhibiting action of the test substances (IC50 value) was determined as follows: • 1. Determination of the value for 0% inhibition. This is the measurement in the absence of substance, measured in sodium-containing transport assay buffer. • 2. Determination of the value for 100% inhibition. This is the measurement in the absence of substance, measured in sodium-free transport assay buffer (140 mM choline chloride, 2 mM potassium chloride, 1 mM magnesium chloride, 1 mM calcium chloride, 10 mM HEPES/Tris, pH7.5). • 3. Calculation of the percentage inhibition values of those measurements which were carried out in the presence of different concentrations of test substance. From this, it was then possible to determine that concentration of the test substance which reduces the uptake of the methyl-α-D-glucopyranoside by 50% (IC50 value).

| IC50 [nM] | SMILES |
| --- | --- |
| 153 | CCc1ccc(Cc2cccc(C3OC(CO)C(F)C(O)C3O)c2)cc1 (centres unmarked) [Example 4] |
| 1600 | CCOC(=O)OCC1OC(c2ccc(OC)c(Cc3ccc(OC)cc3)c2)C(O)C(O)C1(F)F (centres unmarked) [Example 14] |
| 165 | CCOC(=O)OC1C(O)C(c2ccc(Cl)c(Cc3ccc(OCC)cc3)c2)OC(CO)C1(F)F (centres unmarked) [Example 19] |
| 1060 | CCOC(=O)OCC1OC(c2ccc(Cl)c(Cc3ccc(OC)cc3)c2)C(O)C(O)C1F (centres unmarked) [Example 20] |
| 46 | OCC1OC(c2ccc(Cl)c(Cc3ccc(OCC4CC4)cc3)c2)C(O)C(O)C1(F)F (centres unmarked) [Example 32] |
| 3000 | CCOC(=O)OC[C@H]1O[C@@H](c2ccc(Cl)c(Cc3ccc(Cl)cc3)c2)[C@H](O)[C@@H](O)C1(F)F [Example 45] |
| 107 | CCc1ccc(Cc2cc(C3OC(CO)C(F)C(O)C3O)ccc2C(F)(F)F)cc1 (centres unmarked) [Example 52] |
| 257 | CCc1ccc(Cc2cc(C3OC(CO)C(F)(F)C(O)C3O)ccc2C(F)(F)F)cc1 (centres unmarked) [Example 54] |
